The values below come from patent US20240226342A1, “REACTIVE OXYGEN SPECIES IMAGING AGENTS” (Washington University, priority 2022, published 2024).

“Also recorded” adds a separate entry of the source. Like-named read-outs stand apart in the source and are kept apart here.

For data set [1] the following is noted: normal mice, cited from earlier work.
Data set [2] is described as follows: Fluorescence emission of the probe before and after oxidation. The class given is physicochemical.
Data set [3] has as its system reactive oxygen species (superoxide, hydroxyl radical). Nature of the data set: Detection of reactive oxygen species in vitro, fluorescence plate reader assay (G-GO, X-XO, SIN-1 systems). The class given is biochemical. As for the experimental part:
FIG. 3 is a bar graph showing evaluation of SLN128 for detection of reactive oxygen species in vitro in accordance with the present disclosure. Data are shown as mean fluorescence intensity (arbitrary units)±SD, where ****p<0.0001 values are determined by an unpaired student t-test. (Abbreviations: G: Glucose; GOX: Glucose oxidase; HRP: Horseradish peroxidase; X: Xanthine; XO: Xanthine oxidase; SOD: Superoxide Dismutase; CAT: Catalase. All values are normalized to fluorescence output of untreated SLN128 (control). Please note response to HRP induced hydroxyl radical in GGO system, its mitigation with CAT; and response to HX-XO (superoxide) and its intervention with SOD.
Of note, superoxide can originate from numerous sources in vivo, including the mitochondrial electron transport chain and NADPH oxidase(s), which are activated under conditions of inflammation, ischemia, and tissue injury. […] Therefore, the ability to detect elevated ROS in patients could provide a better understanding of relationships between ROS, tissue injury, and disease staging including information on signaling cascade that promote inflammation. To measure ROS production, various methods that use colorimetry, chemiluminescence, and fluorescence have been deployed, While xanthine-xanthine oxidase (X-XO) and SIN-1 have been used for production of superoxide and nitric oxide (wherein the combination produces peroxynitrite), respectively, the glucose-glucose oxidase (G-GO) system is useful for production of hydrogen peroxide. Employing concentrations of SLN128 and G-GO, and X-XO in vitro conditions described previously, the ability of SLN-128 or 12 to detect different reactive oxygen species at 37° C. in PBS was evaluated under physiological conditions (pH 7.2) and normalized by background fluorescence output of untreated SLN128 as a control using a fluorescence plate reader assay (see e.g., FIG. 3). […] Under both conditions, oxidation of the probe was neutralized by the addition of superoxide dismutase (SOD) (see e.g., FIG. 3). […] (see e.g., FIG. 3).

Data set [4] deals with human glioblastoma U87 cells. Nature of the data set: Live-cell fluorescence imaging of cellular accumulation in U87 cells. The class given is cell-based. To be noted: for intracellular localization: U87 cells, 100× objective, with mitotracker / mitoSOX. As for the experimental part: FIG. 4 includes images showing cellular accumulation of SLN128 (20 nM) in human glioblastoma (U87) cells using live-cell fluorescence imaging: intracellular localization in accordance with the present disclosure. SLN128 was incubated at 37° C. for 1 h with either mitotracker red/or mitoSOX Deep Red in human U87MG cells. Images were acquired using a 100×objective.
FIG. 5 includes images showing cellular accumulation of SLN128 (20 nM) in human glioblastoma (U87) cells using live-cell fluorescence imaging in accordance with the present disclosure. SLN128 was incubated for 1 h either with media (control), LPS treated (1 μg/mL; 3 h) or 3-nitropropionic acid (3-NP; 10 μg/mL) human U87MG cells: Images were acquired using a 20×objective.
FIG. 6 is a bar graph showing cellular accumulation of SLN128 in either serum and glucose deprived- or LPS or 3 NP-treated U87 cells in either presence or absence of resveratrol (10 μM) in accordance with the present disclosure. Images were acquired using a 20×objective (all panels represent same magnification) in live human U87 cells. While U87 control cells were plated under normal conditions, both serum-and glucose-deprived (Starvation), and LPS/3-NP treated cells were allowed to recover in presence of resveratrol) for 24 h and treated with SLN-128(20 nM) for 60 min, cell uptake was evaluated via live-cell imaging, and quantified as described earlier. Corrected Total Cell Fluorescence (CTCF)=Integrated Density-(Area of selected cell X Mean fluorescence of background readings); (mean±SD), where **p<0.01 and […] are determined by an unpaired student t-test.
Lipopolysaccharide (LPS), is an endotoxin, released from Gram-negative bacteria. Next, the ability of SLN128 to detect either LPS or 3-Nitropropionic acid (3-NP) induced ROS in human cells was evaluated through live-cell fluorescence imaging. LPS is detected by toll-like receptor 4 (TLR4), a broadly expressed pattern recognition receptor found both on different cell types, including glial cells, and neurons. TLR4 engagement triggers the generation of mitochondrial superoxide from electron transport complex I, which in turn promotes bacterial killing. LPS treatment also triggers increased cytokine and chemokine expression in brain thus driving inflammation. […] To this end, intracellular localization of SLN-128 in either the presence or absence of mitotracker deep red (control) was simulataneously assessed in either the LPS or 3-NP stimulated human glioblastoma U87 cells (see e.g., FIG. 4). […] The probe uptake was quantified as corrected total cell fluorescence (CTCF) using image J as described earlier. […] Uptake in brain and other critical organs was analyzed in terms of percent injected dose per gram of the tissue (% ID/g).

Data set [5] concerns microglial cells and neurons in brain sections. Nature of the data set: Ex vivo fluorescence of brain sections after tail-vein injection of unlabeled SLN128 into 3-NP treated mice. Type of data set: in vivo. To be noted: anti-IBA1 and anti-NeuN. As for the experimental part: FIG. 11 includes images showing post PET/CT imaging in accordance with the present disclosure. SLN128 (100 μL; 1 mg/mL) was injected through tail-vein into 3NP-or saline treated mice, and brain tissue was processed as described in FIG. 10A-FIG. 10D.
Systemic administration of LPS induces oxidative stress and resulting a release of inflammatory cytokines, sustained microglial activation, and neuronal cell loss in brain areas, such as the hippocampus, cerebral cortex, substantia nigra, ventral tegmental area, and thalamus, alters the levels of neurotransmitters in adult animals, and cerebellum. Thus LPS-induced inflammation provides a useful rodent model for preclinical imaging of ^18F-SLN-128. […] Finally, the brain uptake (see e.g., FIG. 9C) derived from PET imaging also correlated with 60 min post imaging quantified uptake (see e.g., FIG. 9D) indicating potential of the radiotracer for imaging endotoxin mediated brain inflammation in vivo. Mitochondrial dysfunction is a major event in the pathogenesis of Huntington disease (HD). It has also been reported that systemic 3-NP administration leads to oxidized proteins in the striatum, as well as a massive loss of striatal neurons. To evaluate potential of ^18F-SLN-128 PET imaging for 3NP-induced ROS-mediated neurodegeneration in mice, PET/CT imaging was performed.

Where [6] appears, read: PBS with 1.0% ethanol, excited with a 402 nm laser.

Consider `CNc1ccc(/C=C/c2ccc(OCCOCCOCC[18F])nc2)cc1` [[^18F]-AVID-45, [^18F]-Florbetapir], for which the brain uptake is 7.33±1.54 % ID/g in data set [1] (2 min) and 1.80±0.07 % ID/g in data set [1] (2 h). Moreover, in data set [1], the “brain uptake ratio 2 min/2 h” value was 4.07.

Turning to `CNc1ccc(/C=C/c2ccc(OCCOCCOCC[18F])cc2)cc1` [[^18F]-Florbetaben], the brain uptake in data set [1] (2 min) was 4.77 % ID/g; in data set [1] (4 h) it was 0.95 % ID/g. The “brain uptake ratio 2 min/4 h” value in data set [1] is 5.0.

On to `COCOc1ccc(-c2c3cccn3c3ccc(OC)cc3[n+]2C)cc1OCCF.[I-]` [compound 15], for which the “emission shift following oxidation” value in data set [2] (oxidized form) is reported as 580 nm.

`COc1ccc2c(c1)N(C)C(c1ccc(O)c(OCCF)c1)c1cccn1-2` (stereo not shown) [SLN128]: the “reactive oxygen species detected” value in data set [3] was “both superoxide and hydroxyl radical”. For the same compound, in data set [3] (37° C., PBS pH 7.2), the “fluorescence response in G-GO system” value is on record as “only a slight increase in fluorescence”. Moreover, the “response to HRP in G-GO system (hydroxyl radical)” value in data set [3] (37° C., PBS pH 7.2, normalized to untreated SLN128) worked out at 10 fold. Further, the detection of superoxide entry in data set [3] (xanthine oxidase/xanthine or SIN-1 with CPTIO, neutralized by SOD) is “ability to detect superoxide”. For the same compound, in data set [2] (setting [6]), the broad emission peak is recorded as 520-540 nm and the emission maximum is reported as 530 nm. Besides, the “enhancement of mean fluorescence intensity following oxidation” value in data set [2] (following its oxidation) is 4 fold. The “fluorescence in LPS- or 3-NP stimulated cells compared to untreated U87 cells” value in data set [4] (LPS or 3-NP stimulation) is “higher fluorescence”. The intracellular localization result in data set [4] is recorded as “penetrates into mitochondria of U87 cells”. Moreover, the intracellular localization entry in data set [4] (listed as SLN 128) was “maps both mitotracker and mitoSOX”. The “monitoring of therapeutic effect (CTCF)” value in data set [4] (presence or absence of resveratrol) is given as “ability to monitor resveratrol-induced mitigation of ROS”. Also, the “localization in brain sections ex vivo” value in data set [5] was “localizes in microglial cells and neurons; also recorded: maps markers for microglial and neuronal cells”.
